Source: patent US12303509B2, “Compounds for the treatment of BRAF-associated diseases and disorders” (Pfizer Inc., priority 2020, dated 2025)

What was measured:
[1] = biological target: full-length FLAG-tagged B-Raf(V600E) (Homo sapiens (Human), UniProt P15056, V600E); experiment: BRAF V600E enzyme assay (TR-FRET competitive displacement); format: binding; conditions: averaged IC50; TR-FRET tracer displacement, 60 min
How it was run: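 TR-FRET tracer competition: compound (top dose 10 μM, 3-fold, 11 points) incubated 60 min at ambient temperature with FLAG-tagged full-length B-Raf(V600E) (5 nM), Eu anti-FLAG cryptate (0.5 nM) and tracer (50 nM), pH 7.4 HEPES/MgCl2 buffer. 665/615 ratio converted to percent of control; IC50 where fitted curve crosses 50 POC.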

H1755 cells = experiment: Cellular phospho-ERK inhibition assay in H1755 cells; format: cell-based; conditions: Homo sapiens, NCI-H1755, 2 hours treatment, read-out: H1755 Cell IC50
How it was run: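 In Cell Western detection of phospho-ERK1/2 (Thr202/Tyr204) over GAPDH after 2 h compound exposure (66 pM to 10 μM, 9 points, 0.25% DMSO) of A375 cells in DMEM or H1755 cells in RPMI, both with 10% FBS. Percent of control set by DMSO and 10 μM binimetinib; 4-parameter IC50.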

[2] = tested on: NCI-H1666 (BRAF G466V) cells; experiment: Proliferation assay (CellTiter-Glo) in NCI-H1666 cells; format: cell-based; conditions: Homo sapiens, 3-5 day incubation
Description: The compounds of Example 13, Example 14 and Example 126 were evaluated in a proliferation assay in two mutant BRAF Class III cell lines: NCI-H1666 (BRAF^G466V) and WM3629 cells (BRAF^D594G/NRAS^G12D). NCI-H1666 cells were obtained from the American Type Culture Collection (ATCC, Rockville, MD) and WM3629 cells were obtained from Rockland Immunochemicals (Limerick, PA). Cells were maintained in RPMI growth medium containing 10% FBS.
Cells were harvested according to standard protocols, counted, and plated onto flat-bottom, 96-well tissue culture plates (Costar #3599) at 2000-5000 cells/well in 100 μL/well of growth medium containing 10% FBS. Cells were incubated at 37° C. with 5% CO2 overnight then treated with inhibitors prepared as a 9-point, 1:3.33 fold dilution series with final compound concentrations ranging from 66 pM-10 μM and a constant DMSO concentration of 0.25%. Control wells contained 0.25% DMSO alone. After a 3-5 day incubation at 37° C., 5% CO2, cell viability was determined by adding 100 μL CellTiter-Glo® Reagent (Promega) to each well and incubated for 15 minutes at room temperature. “Day 0” controls were determined by performing CellTiter-Glo© assay on DMSO control wells at the time of compound treatment (“Day 0” control=0 POC). Luminescence was measured on a Cytation 5 plate reader (BioTek) and values were converted to POC using the following equation:
[formula] • Where: • Xmax Average DMSO Controls • Xmin Average “Day 0” DMSO Controls • IC50 values were calculated using a 4-parameter fit in XLfit software and are shown in Table A2.

Sequence of full-length FLAG-tagged B-Raf(V600E) (P15056 whole entry V600E): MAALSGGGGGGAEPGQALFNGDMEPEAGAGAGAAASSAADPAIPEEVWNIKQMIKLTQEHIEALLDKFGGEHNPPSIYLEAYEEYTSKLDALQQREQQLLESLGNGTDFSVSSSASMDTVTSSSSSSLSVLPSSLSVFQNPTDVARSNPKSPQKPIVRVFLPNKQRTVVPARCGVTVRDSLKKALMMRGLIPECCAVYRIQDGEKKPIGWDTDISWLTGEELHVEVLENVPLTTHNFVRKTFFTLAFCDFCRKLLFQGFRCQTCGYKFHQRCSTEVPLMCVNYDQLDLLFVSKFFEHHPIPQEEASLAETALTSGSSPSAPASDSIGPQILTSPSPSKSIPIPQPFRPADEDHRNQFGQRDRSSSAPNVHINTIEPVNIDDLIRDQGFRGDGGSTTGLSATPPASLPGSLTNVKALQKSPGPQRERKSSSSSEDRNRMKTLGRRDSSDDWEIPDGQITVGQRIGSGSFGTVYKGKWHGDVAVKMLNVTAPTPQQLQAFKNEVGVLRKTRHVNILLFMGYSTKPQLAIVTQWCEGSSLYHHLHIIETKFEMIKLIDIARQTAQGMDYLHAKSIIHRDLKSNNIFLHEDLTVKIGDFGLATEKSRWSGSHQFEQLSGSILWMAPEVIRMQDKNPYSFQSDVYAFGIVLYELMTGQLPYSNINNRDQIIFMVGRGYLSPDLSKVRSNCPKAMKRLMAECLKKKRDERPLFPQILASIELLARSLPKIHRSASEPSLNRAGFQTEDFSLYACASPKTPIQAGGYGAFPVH

| SMILES | IC50 [1] [µM] | IC50 (H1755 cells) [µM] | IC50 [2] [µM] |
| --- | --- | --- | --- |
| Cn1cnc2ccc(Nc3c(F)ccc(NS(=O)(=O)N4CC5CC4C5)c3Cl)c(F)c2c1=O [Example 13, N-(2-chloro-4-fluoro-3-((5-fluoro-3-methyl-4-oxo-3,4-dihydroquinazolin-6-yl)amino)phenyl)-2-azabicyclo[2.1.1]hexane-2-sulfonamide] | 0.006 | 0.078 | 0.24 |
| Cn1cnc2ccc(Nc3c(F)ccc(NS(=O)(=O)N4CC[C@@H](F)C4)c3Cl)c(F)c2c1=O [Example 14, (R)-N-(2-chloro-4-fluoro-3-((5-fluoro-3-methyl-4-oxo-3,4-dihydroquinazolin-6-yl)amino)phenyl)-3-fluoropyrrolidine-1-sulfonamide] | 0.005 | 0.021 | 0.12 |
